Experimental data: US6750228B1, “Aromatic sulfone hydroxamic acid metalloprotease inhibitor” (priority 1997, dated 2004)
Where two headings read alike, the source gives them in different places.

Columns and labels:
Assay in all cases: biochemical
MMP-1 = target: T1, MMP-1 (Homo sapiens, UniProt P03956); conditions: read-out: MMP-1 IC50
T1 construct: made in house; host or cells: transfected HT-1080 cells (provided by Dr. Harold Welgus, Washington University)
T1 sequence (P03956 100-469): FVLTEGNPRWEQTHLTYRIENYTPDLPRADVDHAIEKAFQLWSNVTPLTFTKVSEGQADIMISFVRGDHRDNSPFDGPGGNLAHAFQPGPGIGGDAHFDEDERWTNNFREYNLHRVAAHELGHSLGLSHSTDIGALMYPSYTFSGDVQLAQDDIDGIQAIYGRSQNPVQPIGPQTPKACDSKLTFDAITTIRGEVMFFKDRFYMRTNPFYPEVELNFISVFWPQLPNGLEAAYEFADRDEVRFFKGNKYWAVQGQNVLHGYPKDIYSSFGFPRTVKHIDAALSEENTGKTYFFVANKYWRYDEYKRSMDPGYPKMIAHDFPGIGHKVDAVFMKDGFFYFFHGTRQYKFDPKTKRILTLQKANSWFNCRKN
Procedure, shortened: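 APMA- or trypsin-activated human MMPs (MMP-1 from transfected HT-1080 cells, MMP-2 from transfected cells) preincubated with inhibitor in 1% DMSO at room temperature, then 4 μM MCA-Pro-Leu-Gly-Leu-Dpa-Ala-Arg-NH2 added in Tris/NaCl/CaCl2 buffer pH 7.5. IC50 from fluorescence reduction versus inhibitor concentration.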

MMP-13 = target: T2, MMP-13 (Homo sapiens, UniProt P45452); conditions: recombinant human MMP-13, MCA peptide substrate 4 μM, pH 7.5, room temperature; read-out: MMP-13 IC50
T2 construct: made in house; host or cells: baculovirus / insect cells
Procedure, shortened: (§1)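 APMA- or trypsin-activated enzymes were preincubated with inhibitor for 5 min at room temperature, then the fluorogenic substrate MCA-Pro-Leu-Gly-Leu-Dpa-Ala-Arg-NH2 was added to a final 4 μM.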

MMP-2 = target: T3, MMP-2 (Homo sapiens, UniProt P08253); conditions: recombinant human MMP-2, MCA peptide substrate 4 μM, pH 7.5, room temperature; read-out: MMP-2 IC50
T3 construct: made in house; provided by Dr. Gregory Goldberg, Washington University
T3 sequence (P08253 110-660): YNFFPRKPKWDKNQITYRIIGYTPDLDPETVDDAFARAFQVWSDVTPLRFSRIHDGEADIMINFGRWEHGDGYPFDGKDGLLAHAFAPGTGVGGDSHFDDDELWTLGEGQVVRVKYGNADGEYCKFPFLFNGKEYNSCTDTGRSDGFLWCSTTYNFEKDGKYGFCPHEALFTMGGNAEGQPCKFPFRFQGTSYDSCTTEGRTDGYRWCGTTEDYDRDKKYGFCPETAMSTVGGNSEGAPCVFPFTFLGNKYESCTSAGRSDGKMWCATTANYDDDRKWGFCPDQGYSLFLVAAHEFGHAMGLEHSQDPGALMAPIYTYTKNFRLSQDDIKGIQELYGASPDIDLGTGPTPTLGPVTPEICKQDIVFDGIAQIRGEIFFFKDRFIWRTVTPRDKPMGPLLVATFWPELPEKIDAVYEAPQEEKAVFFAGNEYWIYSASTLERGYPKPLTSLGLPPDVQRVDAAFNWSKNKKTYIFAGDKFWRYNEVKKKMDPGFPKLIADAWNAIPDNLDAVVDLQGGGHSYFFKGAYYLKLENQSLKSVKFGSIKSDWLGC
Procedure, shortened: as §1

[1] = recombinant human MMP-1, MCA peptide substrate 4 μM, pH 7.5, room temperature

Compound | IC50 (MMP-1; [1]) [nM] | IC50 (MMP-13) [nM] | IC50 (MMP-2) [nM] | IC50 (MMP-1) [nM]
O=C(NO)C1(S(=O)(=O)c2ccc(Oc3ccc(OC(F)(F)F)cc3)cc2)CCN(S(=O)(=O)Cc2ccccc2)CC1 [Example 195] | > 10000 | 1 | 0.2 | –
O=C(NO)C1(S(=O)(=O)c2ccc(N3CCC(OCc4ccc(F)c(F)c4)CC3)cc2)CCOCC1 [Example 179] | > 10000 | 20.6 | 170 | –
O=C(c1ccc2ccccc2c1)C1CCN(c2ccc(S(=O)(=O)C3(C(=O)NO)CCN(C4CC4)CC3)cc2)CC1 [Example 393] | > 10000 | 4.5 | 427 | –
O=C(Nc1ccc(OC(F)(F)F)cc1)C1CCN(c2ccc(S(=O)(=O)C3(C(=O)NO)CCOCC3)cc2)CC1 [Example 73] | > 10000 | 15.4 | 2000 | –
COc1ccc(C2CCN(c3ccc(S(=O)(=O)C4(C(=O)NO)CCOCC4)cc3)CC2)c(OC)c1 [Example 833] | > 10000 | 11 | 1750 | –
COCCN1CCN(CC(=O)N2CCC(C(=O)NO)(S(=O)(=O)c3ccc(Oc4ccc(C(F)(F)F)cc4)cc3)CC2)CC1 [Example 330] | > 10000 | 0.5 | 0.7 | –
O=C(Nc1ccncc1)C1CCN(c2ccc(S(=O)(=O)C3(C(=O)NO)CCOCC3)cc2)CC1 [Example 62] | > 10000 | 14 | 690 | –
CN(C)S(=O)(=O)N(C)C1CCN(c2ccc(S(=O)(=O)C3(C(=O)NO)CCOCC3)cc2)CC1 [Example 832] | > 10000 | 18.1 | 2000 | –
O=C(NO)C1(S(=O)(=O)c2ccc(N3CCN(c4cc(C(F)(F)F)ccn4)CC3)cc2)CCOCC1 [Example 534] | > 10000 | 30 | 480 | –
COc1c(F)c(F)c(COC2CCN(c3ccc(S(=O)(=O)C4(C(=O)NO)CCOCC4)cc3)CC2)c(F)c1F [Example 561] | > 10000 | 6 | 500 | –
O=C(Nc1ccccc1)OC1CCN(c2ccc(S(=O)(=O)C3(C(=O)NO)CCOCC3)cc2)CC1 [Example 515] | – | 8 | 27 | > 10000
CCOC1CCCN(c2ccc(S(=O)(=O)C3(C(=O)NO)CCOCC3)cc2)C1 (stereo not drawn) [Example 562] | > 10000 | 1200 | 6300 | –
Cc1ccccc1N1CC2CC1CN2c1ccc(S(=O)(=O)C2(C(=O)NO)CCOCC2)cc1 (stereo not drawn) [Example 494] | > 10000 | 650 | 3300 | –
O=C(NO)C1(S(=O)(=O)c2ccc(N3CCN(c4ccc(OC(F)(F)F)cc4)CC3)cc2)CCOCC1 [Example 695] | > 10000 | 2 | 22.7 | –
O=C(NO)C1(S(=O)(=O)c2ccc(N3CCC(CC4CC4)CC3)cc2)CCOCC1 [Example 816] | > 10000 | 1200 | > 10000 | –
C#CCN1CCC(C(=O)NO)(S(=O)(=O)c2ccc(S(=O)(=O)c3ccccc3)cc2)CC1 [Example 457] | > 10000 | 1800 | 2700 | –
O=C(NO)C1(S(=O)(=O)c2ccc(N3CCC(SC4CCCCC4)CC3)cc2)CCOCC1 [Example 634] | – | 4.4 | 60.7 | > 10000
O=C(Nc1c(Cl)cccc1Cl)N1CCC(C(=O)NO)(S(=O)(=O)c2ccc(Oc3ccc(OC(F)(F)F)cc3)cc2)CC1 [Example 355] | 7000 | 0.4 | < 0.1 | –
COCCN1CCN(c2ccc(S(=O)(=O)C3(C(=O)NO)CCOCC3)cc2)CC1 [Example 645] | > 10000 | 370 | 1200 | –
O=C(NO)C1(S(=O)(=O)c2ccc(N3CCC(Oc4ccc([N+](=O)[O-])c(C(F)(F)F)c4)CC3)cc2)CCOCC1 [Example 569] | > 10000 | 16.9 | 87.7 | –
CCCCOc1cccc(S(=O)(=O)N2CC(Oc3ccc(S(=O)(=O)C4(C(=O)NO)CCOCC4)cc3)C2)c1 [Example 830] | > 10000 | 17.9 | 2100 | –
